Tests used:
[1] = Oral bioavailability in Sprague-Dawley rat at 10 mg/kg administered as single dose; type: ADME, organism-based; settings: in vivo
[2] = Apparent permeability across human Caco2 cells; type: ADME, cell-based; settings: Caco-2
[3] = Half life in Cynomolgus monkey at 2 mg/kg, iv administered as single dose; type: ADME, organism-based, Macaca fascicularis; settings: in vivo
[4] = molecular target: T1, UDP-glucuronosyltransferase 1A1 (Homo sapiens, UniProt P22309); experiment: Inhibition of human UGT1A1; type: ADME
T1 sequence (P22309 whole entry): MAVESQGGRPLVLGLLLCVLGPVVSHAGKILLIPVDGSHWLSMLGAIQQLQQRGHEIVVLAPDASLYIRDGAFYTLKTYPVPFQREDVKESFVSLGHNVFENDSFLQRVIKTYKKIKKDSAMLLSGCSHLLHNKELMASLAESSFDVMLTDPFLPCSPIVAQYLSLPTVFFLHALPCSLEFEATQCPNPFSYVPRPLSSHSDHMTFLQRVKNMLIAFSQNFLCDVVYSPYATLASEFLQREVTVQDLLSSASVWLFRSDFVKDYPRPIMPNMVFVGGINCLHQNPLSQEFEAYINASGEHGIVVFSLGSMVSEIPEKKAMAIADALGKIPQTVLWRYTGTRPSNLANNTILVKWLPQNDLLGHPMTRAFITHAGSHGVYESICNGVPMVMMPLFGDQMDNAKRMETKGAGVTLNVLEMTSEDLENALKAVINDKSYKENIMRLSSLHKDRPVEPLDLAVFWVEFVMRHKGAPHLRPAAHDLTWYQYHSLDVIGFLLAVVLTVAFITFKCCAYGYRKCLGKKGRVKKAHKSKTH

[5] = Plasma concentration in Cynomolgus monkey at 2 mg/kg, iv administered as single dose measured after 24 hrs; type: ADME, organism-based, Macaca fascicularis
[6] = Cytotoxicity against mouse hepatocytes; type: cell-based, Hepatocyte
[7] = Inhibition of recombinant full length HCV genotype 1b NS3/4A protease by FRET assay; design: species or system Hepatitis C virus subtype 1b
[8] = AUC (0 to 24 hrs) in CD-1 mouse at 2 mg/kg, po administered as single dose; type: ADME, organism-based; design: dose 2 mg/kg, time < 24 hr, route oral; settings: in vivo
Cytochrome P450 2B6 = molecular target: T2, Cytochrome P450 2B6 (Homo sapiens, UniProt P20813); experiment: Inhibition of human CYP2B6; type: ADME
T2 sequence (P20813 whole entry): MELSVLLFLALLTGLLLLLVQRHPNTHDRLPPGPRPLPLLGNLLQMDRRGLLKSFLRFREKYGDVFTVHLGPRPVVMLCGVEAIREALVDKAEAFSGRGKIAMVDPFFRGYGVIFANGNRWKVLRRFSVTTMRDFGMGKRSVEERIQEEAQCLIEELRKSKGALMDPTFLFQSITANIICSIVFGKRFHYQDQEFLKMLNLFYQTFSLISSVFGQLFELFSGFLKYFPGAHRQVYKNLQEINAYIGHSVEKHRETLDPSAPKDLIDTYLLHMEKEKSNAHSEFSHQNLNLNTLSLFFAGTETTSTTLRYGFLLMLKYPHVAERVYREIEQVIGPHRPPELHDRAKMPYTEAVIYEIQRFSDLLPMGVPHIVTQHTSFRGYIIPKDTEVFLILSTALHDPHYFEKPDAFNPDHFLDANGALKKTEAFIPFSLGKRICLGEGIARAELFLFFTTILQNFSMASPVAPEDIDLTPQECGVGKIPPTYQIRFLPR

[9] = Efflux ratio of permeability in human Caco2 cells; type: ADME, cell-based; settings: Caco-2
[10] = Plasma concentration in CD-1 mouse at 2 mg/kg, po administered as single dose measured after 24 hrs; type: ADME, organism-based
[11] = AUCt in Sprague-Dawley rat at 10 mg/kg, po administered as single dose; type: ADME, organism-based; settings: in vivo
[12] = Inhibition of HCV genotype 3a NS3/4A protease; design: species or system Hepatitis C virus subtype 3a
[13] = Tmax in Cynomolgus monkey at 2 mg/kg, po administered as single dose; type: ADME, organism-based, Macaca fascicularis; settings: in vivo
Cytochrome P450 3A4 = Cytochrome P450 3A4 (Homo sapiens, UniProt P08684); experiment: Inhibition of human CYP3A4; type: ADME
Sequence of Cytochrome P450 3A4 (P08684 whole entry): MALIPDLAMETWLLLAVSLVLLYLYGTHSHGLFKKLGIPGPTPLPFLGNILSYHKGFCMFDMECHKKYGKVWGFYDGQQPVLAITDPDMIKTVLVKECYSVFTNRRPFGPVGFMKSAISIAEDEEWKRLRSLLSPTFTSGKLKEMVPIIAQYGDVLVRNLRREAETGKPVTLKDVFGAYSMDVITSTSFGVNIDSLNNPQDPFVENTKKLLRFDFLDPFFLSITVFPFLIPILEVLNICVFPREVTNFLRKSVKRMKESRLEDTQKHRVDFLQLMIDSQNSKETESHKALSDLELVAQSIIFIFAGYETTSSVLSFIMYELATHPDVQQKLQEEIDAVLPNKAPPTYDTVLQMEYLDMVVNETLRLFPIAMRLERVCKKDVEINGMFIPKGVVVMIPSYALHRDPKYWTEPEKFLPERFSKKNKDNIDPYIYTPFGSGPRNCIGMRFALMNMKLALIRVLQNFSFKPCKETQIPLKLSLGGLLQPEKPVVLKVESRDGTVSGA

bioavailability [1]: 45%
Papp [2]: 1.8 ×10⁻⁶ cm/s
half-life [3]: 10.3 h
IC50 [4]: ≥ 10 µM
concentration at 24 h [5]: 66 ng/mL
IC50 [7]: 0.0005 µM
AUC(0-t) at 24 h [8]: 1410 ng·h/mL
IC50 (Cytochrome P450 2B6): ≥ 10 µM
efflux ratio [9]: 2.7
concentration at 24 h [10]: 1.5 ng/mL
AUC(0-t) [11]: 3920 ng·h/mL
IC50 [12]: 0.023 µM
Tmax [13]: 1 h
IC50 (Cytochrome P450 3A4): ≥ 10 µM
SMILES: COc1ccc2c(O[C@H]3CCN4C(=O)N(C)CCCCC=C[C@@H]5C[C@@]5(C(=O)NS(=O)(=O)C5(C)CC5)NC(=O)[C@@H]4C3)cc(-c3nc(C(F)(F)F)cs3)nc2c1C
CC50 [6]: > 10 µM

From ChEMBL document CHEMBL3632591, “Discovery and structural diversity of the hepatitis C virus NS3/4A serine protease inhibitor series leading to clinical candidate IDX320” (Bioorg Med Chem Lett, 2015)
